{
  "source": "patent US8192962B2",
  "about": "“Processes for detecting toxic substances” (Daikin Industries, Ltd., priority 2001, dated 2012)",
  "tested_on": "Energy system protein genes",
  "assay": "DNA chip mRNA expression in yeast, energy system protein genes (Table 4)",
  "format": "cell-based, Saccharomyces cerevisiae S288C",
  "summary_of_the_method": "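Untreated cultures served as reference for log-phase S288C yeast given a growth-inhibiting, non-lethal toxicant dose for 2 h at 25° C. in YPD. Gene expression was measured on a whole-genome DNA chip from Cy3/Cy5-labeled cDNA.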",
  "data": [
    {"smiles": "C[S+](C)[O-]", "note": "[(15), dimethylsulfoxide]", "values": [
      {"measurement": "The level of expressed mRNA in the presence of chemical substance/The level of expressed mRNA in the absence of chemical substance", "setting": "yeast gene YJL052W", "value": 2.3},
      {"measurement": "The level of expressed mRNA in the presence of chemical substance/The level of expressed mRNA in the absence of chemical substance", "setting": "yeast gene YJL166W, cells incubated two hours with the chemical substance", "value": 0.5},
      {"measurement": "The level of expressed mRNA in the presence of chemical substance/The level of expressed mRNA in the absence of chemical substance", "setting": "yeast gene YJR009C", "value": 2.1},
      {"measurement": "The level of expressed mRNA in the presence of chemical substance/The level of expressed mRNA in the absence of chemical substance", "setting": "yeast gene YJR048W", "value": 0.6},
      {"measurement": "The level of expressed mRNA in the presence of chemical substance/The level of expressed mRNA in the absence of chemical substance", "setting": "yeast gene YJR155W", "value": 2.6},
      {"measurement": "The level of expressed mRNA in the presence of chemical substance/The level of expressed mRNA in the absence of chemical substance", "setting": "yeast gene YKL016C, cells incubated two hours with the chemical substance", "value": 0.7},
      {"measurement": "The level of expressed mRNA in the presence of chemical substance/The level of expressed mRNA in the absence of chemical substance", "setting": "yeast gene YKL035W", "value": 1.0},
      {"measurement": "The level of expressed mRNA in the presence of chemical substance/The level of expressed mRNA in the absence of chemical substance", "setting": "yeast gene YKL060C, cells incubated two hours with the chemical substance", "value": 1.6},
      {"measurement": "The level of expressed mRNA in the presence of chemical substance/The level of expressed mRNA in the absence of chemical substance", "setting": "yeast gene YKL085W, cells incubated two hours with the chemical substance", "value": 0.5},
      {"measurement": "The level of expressed mRNA in the presence of chemical substance/The level of expressed mRNA in the absence of chemical substance", "setting": "yeast gene YKL150W", "value": 0.9},
      {"measurement": "The level of expressed mRNA in the presence of chemical substance/The level of expressed mRNA in the absence of chemical substance", "setting": "yeast gene YKL152C", "value": 1.8},
      {"measurement": "The level of expressed mRNA in the presence of chemical substance/The level of expressed mRNA in the absence of chemical substance", "setting": "yeast gene YKR058W, cells incubated two hours with the chemical substance, 25° C., YPD medium", "value": 0.5},
      {"measurement": "The level of expressed mRNA in the presence of chemical substance/The level of expressed mRNA in the absence of chemical substance", "setting": "yeast gene YKR097W", "value": 2.5},
      {"measurement": "The level of expressed mRNA in the presence of chemical substance/The level of expressed mRNA in the absence of chemical substance", "setting": "yeast gene YLL041C, cells incubated two hours with the chemical substance", "value": 0.4},
      {"measurement": "The level of expressed mRNA in the presence of chemical substance/The level of expressed mRNA in the absence of chemical substance", "setting": "yeast gene YLR038C, cells incubated two hours with the chemical substance", "value": 0.7},
      {"measurement": "The level of expressed mRNA in the presence of chemical substance/The level of expressed mRNA in the absence of chemical substance", "setting": "yeast gene YLR164W, cells incubated two hours with the chemical substance", "value": 0.7},
      {"measurement": "The level of expressed mRNA in the presence of chemical substance/The level of expressed mRNA in the absence of chemical substance", "setting": "yeast gene YLR174W, cells incubated two hours with the chemical substance", "value": 0.8},
      {"measurement": "The level of expressed mRNA in the presence of chemical substance/The level of expressed mRNA in the absence of chemical substance", "setting": "yeast gene YLR273C", "value": 2.6},
      {"measurement": "The level of expressed mRNA in the presence of chemical substance/The level of expressed mRNA in the absence of chemical substance", "setting": "yeast gene YLR295C, cells incubated two hours with the chemical substance, 25° C., YPD medium", "value": 0.5},
      {"measurement": "The level of expressed mRNA in the presence of chemical substance/The level of expressed mRNA in the absence of chemical substance", "setting": "yeast gene YLR304C, cells incubated two hours with the chemical substance", "value": 1.6},
      {"measurement": "The level of expressed mRNA in the presence of chemical substance/The level of expressed mRNA in the absence of chemical substance", "setting": "yeast gene YLR345W", "value": 1.0},
      {"measurement": "The level of expressed mRNA in the presence of chemical substance/The level of expressed mRNA in the absence of chemical substance", "setting": "yeast gene YLR377C, cells incubated two hours with the chemical substance", "value": 0.8},
      {"measurement": "The level of expressed mRNA in the presence of chemical substance/The level of expressed mRNA in the absence of chemical substance", "setting": "yeast gene YLR395C, cells incubated two hours with the chemical substance", "value": 0.4},
      {"measurement": "The level of expressed mRNA in the presence of chemical substance/The level of expressed mRNA in the absence of chemical substance", "setting": "yeast gene YML054C", "value": 1.1},
      {"measurement": "The level of expressed mRNA in the presence of chemical substance/The level of expressed mRNA in the absence of chemical substance", "setting": "yeast gene YML087C", "value": 0.3},
      {"measurement": "The level of expressed mRNA in the presence of chemical substance/The level of expressed mRNA in the absence of chemical substance", "setting": "yeast gene YML100W", "value": 1.8},
      {"measurement": "The level of expressed mRNA in the presence of chemical substance/The level of expressed mRNA in the absence of chemical substance", "setting": "yeast gene YML120C, cells incubated two hours with the chemical substance", "value": 0.5},
      {"measurement": "The level of expressed mRNA in the presence of chemical substance/The level of expressed mRNA in the absence of chemical substance", "setting": "yeast gene YML125C", "value": 1.9},
      {"measurement": "The level of expressed mRNA in the presence of chemical substance/The level of expressed mRNA in the absence of chemical substance", "setting": "yeast gene YMR089C", "value": 1.8},
      {"measurement": "The level of expressed mRNA in the presence of chemical substance/The level of expressed mRNA in the absence of chemical substance", "setting": "yeast gene YMR105C", "value": 0.9},
      {"measurement": "The level of expressed mRNA in the presence of chemical substance/The level of expressed mRNA in the absence of chemical substance", "setting": "yeast gene YMR118C", "value": 0.9},
      {"measurement": "The level of expressed mRNA in the presence of chemical substance/The level of expressed mRNA in the absence of chemical substance", "setting": "yeast gene YMR261C, cells incubated two hours with the chemical substance", "value": 0.8},
      {"measurement": "The level of expressed mRNA in the presence of chemical substance/The level of expressed mRNA in the absence of chemical substance", "setting": "yeast gene YNL037C", "value": 0.9},
      {"measurement": "The level of expressed mRNA in the presence of chemical substance/The level of expressed mRNA in the absence of chemical substance", "setting": "yeast gene YNL071W", "value": 1.1},
      {"measurement": "The level of expressed mRNA in the presence of chemical substance/The level of expressed mRNA in the absence of chemical substance", "setting": "yeast gene YNL237W", "value": 1.6},
      {"measurement": "The level of expressed mRNA in the presence of chemical substance/The level of expressed mRNA in the absence of chemical substance", "setting": "yeast gene YNL331C", "value": 2.3},
      {"measurement": "The level of expressed mRNA in the presence of chemical substance/The level of expressed mRNA in the absence of chemical substance", "setting": "yeast gene YOL086C, cells incubated two hours with the chemical substance", "value": 1.6},
      {"measurement": "The level of expressed mRNA in the presence of chemical substance/The level of expressed mRNA in the absence of chemical substance", "setting": "yeast gene YOL126C", "value": 1.4},
      {"measurement": "The level of expressed mRNA in the presence of chemical substance/The level of expressed mRNA in the absence of chemical substance", "setting": "yeast gene YOL157C", "value": 1.1},
      {"measurement": "The level of expressed mRNA in the presence of chemical substance/The level of expressed mRNA in the absence of chemical substance", "setting": "yeast gene YOL165C", "value": 3.0},
      {"measurement": "The level of expressed mRNA in the presence of chemical substance/The level of expressed mRNA in the absence of chemical substance", "setting": "yeast gene YOR136W", "value": 1.2},
      {"measurement": "The level of expressed mRNA in the presence of chemical substance/The level of expressed mRNA in the absence of chemical substance", "setting": "yeast gene YOR221C", "value": 1.0},
      {"measurement": "The level of expressed mRNA in the presence of chemical substance/The level of expressed mRNA in the absence of chemical substance", "setting": "yeast gene YOR347C", "value": 2.0},
      {"measurement": "The level of expressed mRNA in the presence of chemical substance/The level of expressed mRNA in the absence of chemical substance", "setting": "yeast gene YPL031C, cells incubated two hours with the chemical substance", "value": 0.7},
      {"measurement": "The level of expressed mRNA in the presence of chemical substance/The level of expressed mRNA in the absence of chemical substance", "setting": "yeast gene YPL088W", "value": 3.2},
      {"measurement": "The level of expressed mRNA in the presence of chemical substance/The level of expressed mRNA in the absence of chemical substance", "setting": "yeast gene YPL171C", "value": 1.4},
      {"measurement": "The level of expressed mRNA in the presence of chemical substance/The level of expressed mRNA in the absence of chemical substance", "setting": "yeast gene YPL240C", "value": 1.2},
      {"measurement": "The level of expressed mRNA in the presence of chemical substance/The level of expressed mRNA in the absence of chemical substance", "setting": "yeast gene YPL271W", "value": 0.8},
      {"measurement": "The level of expressed mRNA in the presence of chemical substance/The level of expressed mRNA in the absence of chemical substance", "setting": "yeast gene YPR006C", "value": 0.7},
      {"measurement": "The level of expressed mRNA in the presence of chemical substance/The level of expressed mRNA in the absence of chemical substance", "setting": "yeast gene YPR026W", "value": 3.1}
    ]}
  ]
}
